Test results published in patent US20040087539A1, “Method of treating conditions related to platelet activity” (priority 2003, published 2004).

Assays:
platelets [1] = assay: Ristocetin-induced vWF-dependent platelet aggregation in platelet-rich plasma; type: cell-based, human; settings: for integrin-dependent second wave of platelet aggregation induced by ristocetin: PRP preincubated 37° C. 5 min, KT5823 2 pM, Rp-8pCPT-cGMP 0.2 μM, KT5720 2 pM [sic], FIG. 3A
Method: (§1) Fresh blood from healthy volunteers was anticoagulated with 1/7 volume of ACD (2.5% trisodium citrate, 2% dextrose and 1.5% citric acid). Platelets were washed with CGS buffer (sodium chloride 0.12 M, trisodium citrate 0.0129 M and d-glucose 0.03 M, pH 6.5), resuspended in modified Tyrode's solution and allowed to incubate at 22° C. for 1 hours as previously described. In experiments using platelet-rich plasma (PRP), 1/10 volume of 3.8% trisodium citrate was used as anticoagulant. Platelet aggregation was measured using a turbidometric platelet aggregometer (Chrono-Log) at 37° C. vWF-dependent platelet aggregation was induced by addition of ristocetin or botrocetin to PRP. To differentiate CPIb-IX-mediated platelet agglutination from the second wave of integrin-dependent platelet aggregation, final concentrations of ristocetin were adjusted in each experiment to achieve a two-wave curve of aggregation. Washed platelets were used in platelet aggregation induced by a-thrombin (Enzyme Research Laboratories). To examine the effects of PKG, 100 μM of membrane permeable cGMP analogs, 8-bromo-cGMP or 8-dibutyl-cGMP (Calbiochem), or 1 μM sildenafil citrate (Pfizer) and added simultaneously with subthreshold concentrations of agonists. PKG inhibitors KT5823 (2 pM) and Rp-8PCPT-cGMP (0.2 mM) were preincubated with platelets at 37° C. for 5 minutes before addition of agonists.
(§2) In FIG. 3A, platelet rich-plasma (PRP) was preincubated at 37° C. for 5 mm with PKG inhibitors KT5823 (2 pM) or Rp-8pCPT-cGMP (0.2 μM). PRP was also incubated with DMSO (vehicle for KT5823), a PKA inhibitor, KT5720 (2 pM), or buffer (Control). The vWF modulator, ristocetin, was then added to induce vWF-GPIb-IX interaction. […] In FIG. 3B, a subthreshold concentration of ristocetin was added to PRP immediately followed by addition of 8-bromo-cGMP or buffer (Control). PRP also was preincubated with integrin inhibitor RGDS before adding ristocetin and 8-bromo-cGMP. In FIG. 3C, platelets were preincubated with or without PKG inhibitor KT5823, then allowed to spread on vWF-coated glass chamber slides. Platelets were stained with an anti-GPIb antibody, and fluorescein-labeled secondary antibody. The slides were imaged under a confocal microscope (magnification =630×).
(§3) In FIG. 6A, increasing concentrations of sildenafil or control 0.15 M NaCl solution were added to platelet-rich plasma followed by a subthreshold concentration of ristocetin. Platelet aggregation was recorded using a platelet aggregometer. In FIG. 6B, sildenafil or control buffer was added to washed platelets followed by addition of subthreshold doses of thrombin to induce platelet aggregation. It was noted that platelet aggregation occurs in the presence of sildenafil. The figure includes the representative results of at least three experiments.
(§4) In FIG. 7A, PRP was preincubated with 0.1 mM 8-bromo-cGMP for increasing lengths of time at 37° C. as indicated. The vWF modulator, ristocetin (1.25 mg/ml), then was added to induce platelet aggregation in a turbidometric platelet aggregometer. In FIG. 7B, PRP was preincubated with a high concentration of 8-bromo-cGMP (1 mM) for 5 minutes. Ristocetin then was added to induce platelet aggregation. In FIGS. 7C and 7D, washed platelets in modified Tyrode's solution were preincubated with 1 mM 8-bromo-cGMP (C), or various concentrations of 8-pCPT-cGMP (D) at 37° C. for 5 minutes. Thrombin (0.05 u/ml) then was added to induce platelet aggregation.

platelets [2] = assay: Low-dose α-thrombin-induced aggregation of washed platelets; type: cell-based, human; settings: for platelet aggregation induced by 0.05 units/ml α-thrombin: washed platelets preincubated 5 min, KT5823 2 μM, Rp-8pCPT-cGMP 0.2 mM, SZ2 40 pg/ml [sic], FIG. 5A
Method: as §1
In FIG. 5A, washed platelets were preincubated with 40 pg/mi anti-GPIba monoclonal antibody SZ2, integrin inhibitor RGDS, or inhibitors of PKG, KT5823 (2 μM) or Rp-8pCPT-cGMP (0.2 mM) (Calbiochem), for 5 min. Platelets also were preincubated with DMSO (vehicle for KT5823), KT5720 or buffer (Control) as controls. α-Thrombin (0.05 units/mi) then was added to induce platelet aggregation. Nonspecific JgG and RGES peptides also were examined as additional controls, but had no effect (not shown). In FIG. 5B, a subthreshold dose of thrombin was added to platelets immediately followed by addition of PKG activator 8-bromo-cGMP or buffer (Control). Shown in the figure are the representative results of at least three experiments.
as §3, §4

platelets [3] = assay: Platelet spreading on vWF-coated surface; type: cell-based, human; settings: FIG. 3C
Method: Platelets were allowed to adhere and spread on 10 μg/ml vWF-coated glass chamber slides (Nunc) at 37° C. for 1 hour. After three washes, platelets were fixed by adding 4% paraformaldehyde in PBS. Platelets were permeabilized by adding 0.1 M Tris, 0.01 M EGTA, 0.15 M NaCl, 5 mM MgCl2, pH 7.4, containing 0.1% Triton X-100, 0.5 mM leupeptin, 1 mM PMSF, and 0.1 mM E64, and then incubated with 20 μg/ml of anti-GPIba antibody (anti-IbαC) at 22° C. for 1 hour. Platelets were further incubated with fluorescein-labeled secondary antibody at 22° C. for 30 mm. After additional washes, platelets were scanned under a Zeiss LSM 510 confocai microscope (Magnification=630×).
as §2, with “Platelets were stained with an anti-GPIb antibody, and fluorescein-labeled secondary antibody. The slides were imaged under a confocal microscope (magnification =630×).” left out

[4] = tested on: 123 cells (CHO cells expressing recombinant human GPIb-IX and integrin αIIbβ3); assay: vWF-induced GPIb-IX-mediated activation of integrin αIIbβ3 (Oregon green-labeled fibrinogen binding, flow cytometry); type: cell-based, Chinese Hamster; settings: 123 cells; preliminary studies, data not shown
Method: Human PKG Iβ cDNA was cloned by RT-PCR, using human platelet mRNA as templates. Sequence of the human PKG Iβ cDNA fragment matches the published sequence. Cloning of human PKG Iα cDNA was described previously. PKG Iα or Iβ in pCDNA3.1/Zeo+vector was transfected into 123 cells (CHO cells expressing recombinant human CPIb-IX and integrin αIIbβ3 using Lipofectamine plus (BRL). Expression of PKG was assessed by Western blotting with an antihuman PKG I antibody (Calbiochem). The kinase activity of the expressed enzymes was measured in cell homogenates using BPDEtide (Calbiochem) as substrate as detailed previously. vWF-induced GPIb-IX-mediated activation of integrin αIIbβ3 was examined by flow cytometry analysis of Oregon green-labeled fibrinogen binding to integrln αIIbβ3 as described previously. Briefly, cells were detached from tissue culture plate using 0.5 mM EDTA, washed at 4° C. and resuspended in modified Tyrode's solution. Cells then were incubated with Oregon green-labeled fibrinogen (20 μg/ml) in the presence of ristocetin and vWF at 22° C. for 30 minutes, and analyzed by FACScalibur flow cytometer. Nonspecific binding of fibrinogen was estimated by measuring fibrinogon binding in the presence of a specific integrin inhibitor RGDS (1 mM) (see Refs. 13 and 43-45).
In FIG. 1A, CHO cells expressing GPLb-JX and integrin αIIbβ3 (123 cells) were transfected with cDNA encoding PKGIα or vector. Expression of PKG Ia in 123 cells was detected by Western blotting with an anti-human PKG I antibody (Insert), and recombinant PKG activity was determined in the absence or presence of 20 μM 8-bromo-cGMP as previously described. Results are expressed as mean +SD (n=3). For FIGS. 1B and 1C, reconstitution of GPIb-IX-mediated integrin activation in CHO cells was published (see Ref. 13). […] Cells were analyzed by flow cytometry. Quantitative results from three experiments are expressed as fibrinogen binding indices (total bound fluorescence (Fg)/nonspecifically bound fluorescence (Fg+RGDS)), and shown in FIG. 1B (mean ±SD).

platelets [5] = assay: Measurement of cGMP formation in washed platelets (enzyme immunoassay); type: cell-based, human; settings: ristocetin plus vWF 15 μg/ml or glyco-SNAP1 100 μM, 5 minutes, FIG. 4
Method: Washed platelets (3×10^8/ml) resuspended in 400 μl Tyrode's buffer were stirred at 37° C. after addition of control buffer, 1 mg/mi ristocetin alone, 15 pg/mi vWF and 1 mg/mi ristocetin, or 100 μM glyco-SNP1. The reaction was stopped by addition of 400 μl of ice-cold 12% (w/v) trichloroacetic acid. Samples were mixed and centrifuged at 2000×g for 15 ruin at […]. Supenatant was removed and washed with 5 volumes of water-saturated diethyl ether 4 times, and then lyophilized. cGMP levels were measured using a cGMP enzyme immunoassay kit from Amersham-Pharmacia Biotech.
Washed platelets (3×10^8/ml) were preincubated at 37° C. for 10 mm with buffer, control JgG, a monoclonal antibody against GPIba, AK2. Platelets then were further incubated in a platelet aggregometer for 5 minutes after addition of buffer (Control), 1.25 mg/ml ristocetin only (Risto), ristocetin plus vWF (vWF) (15 μg/ml) or glyco-SNAP1 (100 μM). The reaction was stopped by addition of 400 μl of ice-cold 12% (w/v) trichloroacetic acid. CGMP concentrations were determined using a cGMP enzyme immunoassay kit. Results are expressed as mean ±SD (n=3).

[6] = tested on: CHO cells expressing human platelet receptors; assay: Cell adhesion to immobilized vWF under flow; type: cell-based, Chinese Hamster; settings: sildenafil 5 μM, RGDS 4 mM
Method: CHO cells expressing human platelet receptors were resuspended in modified Tyrode's buffer, pH 7.4, containing 1 mg/mi of bovine serum albumin (BSA) (see Ref. 46), and final cell count was 5×10^5/ml. […] Purified human vWF (10 μg/ml in 0.1 M NaHCO3, pH 8.3) was added to glass microcapillary tubes (inner diameter of 1.33 mm and a length of 7.2 cm), and incubated at 4° C. for 20 h. The vWF-coated microcapillary tubes then were incubated with 5% BSA. After washing, the cell suspension was aspirated through the tube by a syringe pump (Harvard Apparatus Inc.) at desired shear rates for 1.2 minutes and washed with modified Tyrode's buffer for additional 10 minutes at the same shear rates to remove transiently adherent cells. The experiments were continuously recorded on videotape using a video cassette recorder (model 9500, Sony). The number of stably adherent cell on immobilized vWF was counted on images obtained at 20 randomly selected positions in the vWF-coated tubes.
In FIGS. 2A and B, vWF-coated capillary tubes were perfused with equivalent numbers (5×10^5/ml) of CHO cells expressing recombinant GPLb-JX alone (1b9), integrin αIIbβ3 alone (2b3a), both GPIb-IX and integrin αIIbβ3 (123) or expressing GPJb-JX, integrin α^IIbβ3 and PKG Ia (123PKG) at a shear rates of 800 s^−1 (A) or 1500 s^−1 (B) for 1.2 minutes, and then perfused with the modified Tyrodes buffer for 10 minutes at the same shear rates to wash out transient adherent cells. The expenments were recorded in real time. Cells stably adherent to vWF-coated capillary tubes at 20 randomly selected locations were counted.
In FIG. 2C, vector-transfected 123 cells (123) or 123PKG cells also was perfused into vWF-coated glass capillary tubes as described in FIG. 2A in the absence or presence (+RGDS) of an integrin inhibitor RGDS peptide (4 mM) and in the absence (Control) or presence of cGMP-enhancing drug, sildenafil (5 μM). […] The experiments were repeated at least three times.

## Nc1nc2c(nc(Sc3ccc(Cl)cc3)n2C2O[C@@H]3COP(=O)(O)O[C@H]3[C@H]2O)c(=O)[nH]1 (stereo in doubt) [8-pCPT-cGMP]
Platelets [1]; PRP, agent added with subthreshold ristocetin (1 mg/mm [sic]) (or botrocetin), FIGS. 3B, 6A
  platelet aggregation together with a subthreshold concentration of ristocetin: induced integrin-dependent platelet aggregation
Platelets [2]; 0.5 mM 8-pCPT-cGMP, washed platelets, thrombin 0.05 u/ml, FIG. 7D
  preincubation time required to inhibit platelets: less than 5 minutes

## CCCCCCOC(=O)[C@]1(O)C[C@@H]2O[C@@]1(C)n1c3ccccc3c3c4c(c5c6ccccc6n2c5c31)C(=O)NC4 [KT5720]
Platelets [1]
  integrin-dependent second wave of platelet aggregation induced by ristocetin: no inhibitory effects

## COC(=O)[C@@]1(OC)C[C@H]2O[C@]1(C)n1c3ccccc3c3c4c(c5c6ccccc6n2c5c31)C(=O)N(C)C4 [KT5823]
Platelets [3]
  platelet spreading on a vWF-coated surface: inhibited
Platelets [1]
  integrin-dependent second wave of platelet aggregation induced by ristocetin: abolished
Platelets [2]
  platelet aggregation induced by 0.05 units/ml α-thrombin: inhibited
[4]
  GPIb-IX-mediated integrin activation: inhibited

## Nc1nc2c(nc(Sc3ccc(Cl)cc3)n2C2OC3COP(O)(=S)OC3C2O)c(=O)[nH]1 (stereo not drawn) [Rp-8-pCPT-cGMP]
Platelets [1]
  integrin-dependent second wave of platelet aggregation induced by ristocetin: inhibited
Platelets [2]
  platelet aggregation induced by 0.05 units/ml α-thrombin: inhibited

## CC(=O)NC(C(=O)NC1OC(CO)C(O)C(O)C1O)C(C)(C)SN=O (stereo not drawn) [glyco-SNAP1]
Platelets [5]
  platelet cGMP levels: comparable

## RGDS
[6]; FIG. 2C, 8-bromo-cGMP not shown
  stable adhesion of PKG-expressing 123 cells (123PKG) to vWF under flow: inhibited
[6]
  stable adhesion of sildenafil-treated 123 cells to vWF under flow: inhibited
Platelets [2]
  platelet aggregation induced by 0.05 units/ml α-thrombin: inhibited

## RGES
Platelets [2]
  platelet aggregation induced by 0.05 units/ml α-thrombin: no effect

## vWF: purified human von Willebrand factor, ligand of GPIb-IX
Platelets [5]
  platelet cGMP levels: dramatic increase
